Measurements as given in patent US10450295B2, “Method of using an indolinone molecule and derivatives for inhibiting liver fibrosis and hepatitis” (Acclaim BioMed USA LLC, priority 2013, dated 2019).
“Also recorded” adds a separate entry of the source.

What was measured:
human HSC's (LX-2) = assay: HSC morphology under the microscope; format: cell-based
Experimental: In the control cultures, the HSCs appeared morphologically to be like fibroblasts (FIG. 1A). In the presence of Hesperadin, the HSC cells increased in size 2-3 folds (FIGS. 1B and C). The effect of Hesperadin on HSC growth was examined. […] The cell-cycle progression of HSCs is further analyzed in the presence of 0.625 μM Hesperadin using Flow Cytometry. […] Human Hepatic Stellate cells (LX-2 cell line) (HSCs) were obtained from the Key Lab of Regenerative Medicine, Jinan University, Guangzhou, China, which were maintained in Dulbecco's Modified Eagle Medium (DMEM)+10% fetal calf serum and penicillin-streptomycin (100 unit/ml and 0.1 mg/ml, respectively), in 5% CO2 at 37° C. inside a humidified cell incubator. The culture medium was changed every three days. To test the effects of small molecule Hesperadin on the mouse and human HSCs, the cultures were treated with 0.625 μM of Hesperadin for 48 hrs. The cultures were then fixed in ice cold 70% ethanol and incubated in phosphate buffered saline with RNase (0.25 mg/ml), Propidium iodide dye (40 μg/ml) and 0.1% Triton X for an hour at room temperature. […] The proliferation of HSCs was also evaluated by the MTT staining assay with 3-(4,5-Dimethylthiazol-2-yl)-2,5-diphenyltetrazolium bromide). […] The absorbance (at 570 nm) was measured using a BIORAD 3550 Microplate Reader. […]

[1] = tested on: Human Hepatic Stellate cells (LX-2 cell line); assay: MTT analysis of HSC proliferation; format: cell-based; conditions: serial dilutions, 48 hours
Experimental: (§1) Human Hepatic Stellate cells (LX-2 cell line) (HSCs) were obtained from the Key Lab of Regenerative Medicine, Jinan University, Guangzhou, China, which were maintained in Dulbecco's Modified Eagle Medium (DMEM)+10% fetal calf serum and penicillin-streptomycin (100 unit/ml and 0.1 mg/ml, respectively), in 5% CO2 at 37° C. inside a humidified cell incubator. The culture medium was changed every three days. To test the effects of small molecule Hesperadin on the mouse and human HSCs, the cultures were treated with 0.625 μM of Hesperadin for 48 hrs. The cultures were then fixed in ice cold 70% ethanol and incubated in phosphate buffered saline with RNase (0.25 mg/ml), Propidium iodide dye (40 μg/ml) and 0.1% Triton X for an hour at room temperature. For cell cycle analysis, the Propidium iodide stained cells were examined using a flow cytometer (“BD LSRFortessa Cell Analyzer”). The proliferation of HSCs was also evaluated by the MTT staining assay with 3-(4,5-Dimethylthiazol-2-yl)-2,5-diphenyltetrazolium bromide). HSCs were plated at 1×10^4 cells/ml and culture overnight. Hesperadin (in serial dilutions) was then added into the culture medium for 48 hours. This was followed by addition of MTT (250 μg/ml) for a further 4 hours. The medium was eluted and the formazan crystal was dissolved in 100 μL of DMSO. The absorbance (at 570 nm) was measured using a BIORAD 3550 Microplate Reader. […]

human HSC (LX-2) cells = assay: Cell cycle analysis by flow cytometry (propidium iodide); format: cell-based; conditions: 0.625 μM, vs control cultures
Experimental: as §1

MMP-9 gene expression = assay: Real-time RT-PCR in HSC, MMP-9; format: cell-based, human; conditions: 0.625 μM, FIG. 10
Experimental: Human Hepatic Stellate cells (LX-2 cell line) (HSCs) were obtained from the Key Lab of Regenerative Medicine, Jinan University, Guangzhou, China, which were maintained in Dulbecco's Modified Eagle Medium (DMEM)+10% fetal calf serum and penicillin-streptomycin (100 unit/ml and 0.1 mg/ml, respectively), in 5% CO2 at 37° C. inside a humidified cell incubator. The culture medium was changed every three days. To test the effects of small molecule Hesperadin on the mouse and human HSCs, the cultures were treated with 0.625 μM of Hesperadin for 48 hrs. […] The proliferation of HSCs was also evaluated by the MTT staining assay with 3-(4,5-Dimethylthiazol-2-yl)-2,5-diphenyltetrazolium bromide). […] The absorbance (at 570 nm) was measured using a BIORAD 3550 Microplate Reader. […]
Collagen type-I, -III and -VI, MMP-2, MMP-9 and TIMP-1 gene expression was determined using quantitative real-time PCR. […] Quantitation of mRNA levels was performed using a SYBR® Premix Ex Taq™ Kit (Takara) in an Applied Biosystems 7900HT Fast Real-Time PCR System. To quantify the amount of specific mRNA in the samples, a standard curve was generated for each PCR run using four amounts of the cDNA synthesized from our HSC cultures and liver samples. […] Data was analyzed using a StatView software (Abacus Concepts Inc) with Student's t-test.

human Aurora B kinase = conditions: read-out: IC50 for the prevention of the phosphorylation of substrate; cited from earlier work

CCS(=O)(=O)Nc1ccc2c(c1)/C(=C(/Nc1ccc(CN3CCCCC3)cc1)c1ccccc1)C(=O)N2 [Hesperadin, (Z)—N-(2-oxo-3-(Phenyl(4-(piperidin-1-ylmethyl)phenylamino)methylene)indolin-5-yl)ethanesulfonamide]
increase in HSC cell size (human HSC's (LX-2); 0.625 or 1.25 μM, 48 hrs): 2-3 folds
increase in HSC size (FIG. 1) (human HSC's (LX-2); 0.65 and 1.25 μM, 24 hours): several folds
HSC proliferation (MTT, optical density) [1]: inhibited HSC proliferation in a dose dependent manner; also recorded: suppressed HSC proliferation in a dose-dependent manner
cell-cycle progression of HSCs (human HSC (LX-2) cells): significantly more HSCs in the G2-M phase; also recorded: appeared to block cytokinesis
MMP-9 mRNA expression (MMP-9 gene expression): inhibited
IC50 (human Aurora B kinase): 40 nM
